Measurements as given in US8933039B2 (NPS Pharmaceuticals, Inc., priority 1995, dated 2015).
Non-standard residues stand in square brackets, D forms with d. Residues, ends and D or L forms follow the SMILES beside them. No end group written: not given here. Tle = CC(C)(C)[C@H](N)C(=O)O

Legend:
[1] = test system: CD1 mice; experiment: Intestinotrophic activity assessment: small bowel weight in mice; assay type: in vivo; details: for % Increase in small bowel weight: CD1 mice, 2.5 μg peptide s.c. b.i.d. in PBS, sacrificed 10 or 14 days, relative to vehicle only; for % Activity (small bowel inducing activity relative to native rat GLP-2(1-33) = 100%): mice, as Example 4
Method: Recipients were CD1 mice obtained from Charles River Laboratory (Ontario, Canada). The CD1 mice were aged-matched females at time of injection (n=3-4 per group), 6 weeks of age, unless otherwise specified. The animals were allowed a minimum of 24 hours to acclimatize to the laboratory facility before the initiation of each experiment. Animals were identified by ear punch. The mice were not restricted by diet or activity during the experiments. The light/dark cycle was 12 hours, between 6 pm to 6 am. Controls were age- and sex-matched (n=3-4) animals. Mice were injected subcutaneously, twice a day (b.i.d.), with 2.5 μg peptide in a total volume of 0.5 cc of PBS and were monitored daily in the laboratory facility. Animals were sacrificed 10 or 14 days after injection, and were fasted at least 20 hours before sacrifice.
The mice were anaesthetised with CO2 and exsanguinated by cardiac puncture. Blood was collected in 75 μl of TED (Trasysol; EDTA (5000 KIU/ml: 1.2 mg/ml; Diprotin-A), and the blood was centrifuged at 14 k×g for 5 minutes and the plasma was stored at −70 prior to analysis. The small bowel was removed from the peritoneal cavity, from pylorus to cecum, cleaned weighed and measured. For comparative purpose, sections from each animal were obtained from the identical anatomical position. Fragments each measuring 1.5-2.0 cm in length were obtained 8±2 cm, 18±2 cm, 32±2 cm from pylorus for histomorphometry representing proximal jejunum, distal jejunum and distal ileum. Each small bowel fragment was opened longitudinally on its antimesenteric border in a tissue block and then placed on 10% formalin (vol./vol.) overnight, then transferred to 70% […].
Percentage change in small bowel weight was calculated by dividing the mean change in bowel weight of analog treated mice, relative to mice treated with vehicle only, by the mean bowel weight of mice treated with vehicle only, and multiplying this figure by 100.
Experiments assessing the small bowel inducing activity of various analogs was repeated as described above for Example 4. In these experiments, the small bowel inducing activity of each analog in mice was calculated relative to that of native rat GLP-2(1-33) (expressed as 100% of activity). Resistance of analogs to DPP-IV cleavage was performed as described above in Example 3.

[2] = molecular target: DPP-IV (Homo sapiens, UniProt P27487); experiment: Assay for resistance to dipeptidyl peptidase IV (RP-HPLC of cleavage product); details: human, isolated human placental DPP-IV (dipeptidyl peptidase IV), pH 7.4, % Cleaved by DPP-IV, as Example 3: human placental DPP-IV, 37° C., PBS pH 7.4
Sequence of DPP-IV (P27487 whole entry): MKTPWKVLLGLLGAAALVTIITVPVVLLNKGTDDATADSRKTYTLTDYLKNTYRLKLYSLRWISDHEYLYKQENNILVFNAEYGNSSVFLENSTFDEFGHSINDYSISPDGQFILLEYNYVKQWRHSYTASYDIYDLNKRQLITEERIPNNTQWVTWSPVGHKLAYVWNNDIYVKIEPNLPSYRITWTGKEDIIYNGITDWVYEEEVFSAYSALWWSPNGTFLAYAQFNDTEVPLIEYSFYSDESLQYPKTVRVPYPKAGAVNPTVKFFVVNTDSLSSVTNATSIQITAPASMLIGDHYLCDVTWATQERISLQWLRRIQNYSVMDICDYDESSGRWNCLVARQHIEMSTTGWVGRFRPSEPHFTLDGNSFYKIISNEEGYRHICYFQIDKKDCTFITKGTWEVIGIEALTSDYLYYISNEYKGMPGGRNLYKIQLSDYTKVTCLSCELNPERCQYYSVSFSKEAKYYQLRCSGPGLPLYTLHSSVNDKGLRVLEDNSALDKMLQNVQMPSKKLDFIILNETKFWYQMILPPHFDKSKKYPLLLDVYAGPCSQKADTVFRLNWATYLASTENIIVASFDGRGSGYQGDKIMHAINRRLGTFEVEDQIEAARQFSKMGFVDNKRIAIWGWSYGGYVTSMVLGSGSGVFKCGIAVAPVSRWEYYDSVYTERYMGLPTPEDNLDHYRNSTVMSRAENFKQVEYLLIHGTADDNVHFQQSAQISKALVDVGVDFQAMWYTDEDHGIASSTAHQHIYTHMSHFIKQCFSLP
Method: The mixture was incubated at 37° C. in a circulating water bath for 24 hours. The incubation was quenched by the addition of 50 μl of a solution of diprotin A prepared at a concentration of 4 mg/ml in PBS. Each peptide was tested in duplicate.
Each sample was analyzed by reverse-phase (RP) HPLC as follows: 90 μl of the quenched incubation mixture was injected onto a Rainin Dynamax 300 Å, C18, 5 micron, 4.6×250 millimeter column. The samples were eluted with 0.1% trifluoroacetic acid (TFA) in water modified with 0.1% acetonitrile using a linear gradient and a flow rate of 1 ml per minute. Sample components were detected at 214 nanometers (nm). The extent of cleavage was measured by relative integration of the peak corresponding to the cleavage product compared to that of the remaining undigested parent peptide.

Compound | metabolised at 24 h, 0.19 mg/ml [2] [%] | % Increase in small bowel weight [1] [%] | % Activity (small bowel inducing activity relative to native rat GLP-2(1-33) = 100%) [1] [%] | % Increase in small bowel weight ([1]; listed as [Leu^10]rGLP-2) [%]
H-HGDGAFSDEMNTILDNLAARDFINWLIQTKITD-OH [[Gly2,Ala5]hGLP-2(1-33)] | 0 | 38 | 136 | 
H-HQDGSFSDEMNTILDNLAARDFINWLIQTKITD-OH [[Gln2]hGLP-2(1-33)] | 0 |  | 100 | 
H-RHADGSFSDEMNTILDNLATRDFINWLIQTKITD-OH [[Arg-l]ratGLP-2(-1-33)] | 0 |  | 11 | 
H-HADASFSDEMNTILDNLATRDFINWLIQTKITD-OH [[Ala4]ratGLP-2(1-33)] | 72 | 30 | 59 | 
CC[C@H](C)[C@H](NC(=O)[C@H](Cc1ccccc1)NC(=O)[C@H](CC(=O)O)NC(=O)[C@H](CCCNC(=N)N)NC(=O)[C@H](C)NC(=O)[C@H](C)NC(=O)[C@H](CC(C)C)NC(=O)[C@H](CC(N)=O)NC(=O)[C@H](CC(=O)O)NC(=O)[C@H](CC(C)C)NC(=O)[C@@H](NC(=O)[C@@H](NC(=O)[C@H](CC(N)=O)NC(=O)[C@H](CCSC)NC(=O)[C@H](CCC(=O)O)NC(=O)[C@H](CC(=O)O)NC(=O)[C@H](CO)NC(=O)[C@H](Cc1ccccc1)NC(=O)[C@H](CO)NC(=O)CNC(=O)[C@H](CC(=O)O)NC(=O)CNC(=O)[C@@H](N)Cc1c[nH]cn1)[C@@H](C)O)[C@@H](C)CC)C(=O)N[C@@H](CC(N)=O)C(=O)N[C@@H](Cc1c[nH]c2ccccc12)C(=O)N[C@@H](CC(C)C)C(=O)N[C@H](C(=O)N[C@@H](CCC(N)=O)C(=O)N[C@H](C(=O)N[C@@H](CCCCN)C(=O)N[C@H](C(=O)N[C@H](C(=O)N[C@@H](CC(=O)O)C(=O)N[C@@H](Cc1ccc(O)cc1)C(=O)O)[C@@H](C)O)[C@@H](C)CC)[C@@H](C)O)[C@@H](C)CC [[Gly2, Tyr34]hGLP-2(1-34)] | 0 |  | 297 | 
RRADGSFSDEMNTILDNLATRDFINWLIQTKITD [[Arg-2,Arg-1]ratGLP-2(2-33)] | 0 |  |  | 
H-HADGSFSDELNTILDNLATRDFINWLIQTKITD-OH [[Leu10]ratGLP-2(1-33)] |  |  | 51 | 26
H-HGDGSFSDEMATILDNLAARDFINWLIQTKITD-OH [[Gly2,Ala11]hGLP-2(1-33)] |  | 42 | 150 | 
H-HGDGSFSDAMNTILDNLAARDFINWLIQTKITD-OH [[Gly2,Ala9]hGLP-2(1-33)] |  | 31 | 112 | 
H-HGDGSFSDEMNTILDNAAARDFINWLIQTKITD-OH [[Gly2,Ala17]hGLP-2(1-33)] |  | 36 | 130 | 
CC[C@H](C)[C@H](NC(=O)[C@H](Cc1ccccc1)NC(=O)[C@H](CC(=O)O)NC(=O)[C@H](CCCNC(=N)N)NC(=O)[C@H](C)NC(=O)[C@H](C)NC(=O)[C@H](CC(C)C)NC(=O)[C@H](CC(N)=O)NC(=O)[C@H](CC(=O)O)NC(=O)[C@H](CC(C)C)NC(=O)[C@@H](NC(=O)[C@@H](NC(=O)[C@H](CC(N)=O)NC(=O)[C@H](CCSC)NC(=O)[C@H](CCC(=O)O)NC(=O)[C@H](CC(=O)O)NC(=O)[C@H](CO)NC(=O)[C@H](Cc1ccccc1)NC(=O)[C@H](CO)NC(=O)CNC(=O)[C@H](CC(=O)O)NC(=O)[C@H](C)NC(=O)[C@@H](N)Cc1c[nH]cn1)[C@@H](C)O)[C@@H](C)CC)C(=O)N[C@@H](CC(N)=O)C(=O)N[C@@H](Cc1c[nH]c2ccccc12)C(=O)N[C@@H](CC(C)C)C(=O)N[C@H](C(=O)N[C@@H](CCC(N)=O)C(=O)N[C@H](C(=O)N[C@@H](CCCCN)C(=O)N[C@H](C(=O)N[C@H](C(=O)N[C@@H](CC(=O)O)C(=O)NCCCCNC(=N)N)[C@@H](C)O)[C@@H](C)CC)[C@@H](C)O)[C@@H](C)CC [[Agm34]hGLP-2(1-34)] |  |  | 97 | 

Continued, in another order:

metabolised at 24 h, 0.19 mg/ml [2] [%] | Compound | % Increase in small bowel weight [1] [%] | % Activity (small bowel inducing activity relative to native rat GLP-2(1-33) = 100%) [1] [%] | % Increase in small bowel weight ([1]; listed as [Leu^10]rGLP-2) [%]
0 | H-PADGSFSDEMNTILDNLAARDFINWLIQTKITD-OH [[Pro1]hGLP-2(1-33)] |  | 12 | 
0 | CC[C@H](C)[C@H](NC(=O)[C@H](Cc1ccccc1)NC(=O)[C@H](CC(=O)O)NC(=O)[C@H](CCCNC(=N)N)NC(=O)[C@H](C)NC(=O)[C@H](C)NC(=O)[C@H](CC(C)C)NC(=O)[C@H](CC(N)=O)NC(=O)[C@H](CC(=O)O)NC(=O)[C@H](CC(C)C)NC(=O)[C@@H](NC(=O)[C@@H](NC(=O)[C@H](CC(N)=O)NC(=O)[C@H](CCSC)NC(=O)[C@H](CCC(=O)O)NC(=O)[C@H](CC(=O)O)NC(=O)[C@H](CO)NC(=O)[C@H](Cc1ccccc1)NC(=O)[C@H](CO)NC(=O)CNC(=O)[C@H](CC(=O)O)NC(=O)[C@@H](NC(=O)[C@@H](N)Cc1c[nH]cn1)C(C)(C)C)[C@@H](C)O)[C@@H](C)CC)C(=O)N[C@@H](CC(N)=O)C(=O)N[C@@H](Cc1c[nH]c2ccccc12)C(=O)N[C@@H](CC(C)C)C(=O)N[C@H](C(=O)N[C@@H](CCC(N)=O)C(=O)N[C@H](C(=O)N[C@@H](CCCCN)C(=O)N[C@H](C(=O)N[C@H](C(=O)N[C@@H](CC(=O)O)C(=O)O)[C@@H](C)O)[C@@H](C)CC)[C@@H](C)O)[C@@H](C)CC [[tBuGly2]hGLP-2] (H-H[Tle]DGSFSDEMNTILDNLAARDFINWLIQTKITD-OH) |  | 123 | 
48 | H-HADGSFSDEMNTILDNLAARDFINYLIQTKITD-OH [[Tyr25]hGLP-2(1-33)] |  | 64 | 
0 | H-HKDGSFSDEMNTILDNLAARDFINWLIQTKITD-OH [[Lys2]hGLP-2(1-33)] |  | 90 | 
13 | H-HVDGSFSDEMNTILDNLAARDFINWLIQTKITD-OH [[Val2]hGLP-2(1-33)] |  | 180 | 
0 | H-HHDGSFSDEMNTILDNLAARDFINWLIQTKITD-OH [[His2]hGLP-2(1-33)] |  | 0 | 
0 | H-HAPGSFSDEMNTILDNLAARDFINWLIQTKITD-OH [[Pro3]hGLP-2(1-33)] |  | 140 | 
0 | H-HFDGSFSDEMNTILDNLAARDFINWLIQTKITD-OH [[Phe2]hGLP-2(1-33)] |  | 50 | 
0 | HSQGSFSDEMNTILDNLAARDFINWLIQTKITD [[Ser2,Gln3]hGLP-2(1-33)] |  |  | 
